Among the test systems are A549 NSCLC; BT-549 breast; HL-60(TB) leukemia; K-562 leukemia; NCI-H460 lung; SK-MEL-28 melanoma; SW-620 colon; TK-10 renal; CAKI-1 renal; SNB-19 CNS.
Assay in all cases: NCI-60 cell line screen, 48 h

Drawing on PubChem BioAssay (NCI), this text covers TGI and GI50 for 8 molecules.

Several values for one entry are separate records, joined by “and”; a condition that tells them apart may be missing. Equal values may be shown once.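 Method: 48-hour compound exposure of cells in 96-well plates, five concentrations, linear interpolation of endpoints. GI50: concentration for 50% inhibition of growth. TGI is the concentration that stops growth completely.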

`COc1ccc(C(=O)c2cc(OC)c(OC)c(OC)c2)cc1OC`: the TGI with A549 NSCLC was > 100 µM; in the test with BT-549 breast, > 100 µM; in the test on HL-60(TB) leukemia it was 11.7 µM; in the test on K-562 leukemia it was > 100 µM; in the test on NCI-H460 lung, > 100 µM; in the test on SK-MEL-28 melanoma it was > 100 µM. Moreover, the TGI with SW-620 colon and in the test with TK-10 renal was > 100 µM throughout.

Take `COC(=O)C1=COC(C)C2CN3CCc4c([nH]c5ccccc45)C3CC12` (stereo unspecified): the GI50 was 37.6 µM and > 100 µM in the test with A549 NSCLC; 28 µM and > 100 µM in the test on BT-549 breast; 21.2 µM and > 100 µM in the test with CAKI-1 renal; 17.5 µM and 46.1 µM in the test on HL-60(TB) leukemia; 24 µM and > 100 µM in the test on NCI-H460 lung; 16.1 µM and > 100 µM in the test on SK-MEL-28 melanoma. The GI50 with SW-620 colon is 22.8 µM and > 100 µM; with TK-10 renal it was 27.7 µM and > 100 µM. For the same molecule, the TGI with A549 NSCLC was > 100 µM; in the test with BT-549 breast, > 100 µM; in the test with CAKI-1 renal, 85.6 µM and > 100 µM; in the test with HL-60(TB) leukemia it was 41.7 µM and > 100 µM; in the test on NCI-H460 lung, 58.8 µM and > 100 µM; in the test on SK-MEL-28 melanoma, 41.8 µM and > 100 µM. For the same molecule, the TGI in the test with SNB-19 CNS was > 100 µM; in the test on SW-620 colon, 75.7 µM and > 100 µM; with TK-10 renal, 88.5 µM and > 100 µM.

For `CC1CC(O)C(=O)C(O[C@@H]2C[C@@H]3CC[C@@H]4[C@H](CC[C@]5(C)C(C6=CC(=O)OC6)CC[C@]45O)[C@@]3(C=O)C[C@H]2O)O1` (stereo partly specified), the TGI in the test on A549 NSCLC was < 0.0199 µM; in the test with BT-549 breast it was 0.126 µM; in the test on CAKI-1 renal it was 0.0597 µM; with HL-60(TB) leukemia, 0.155 µM; with NCI-H460 lung it was 0.0414 µM; in the test on SK-MEL-28 melanoma, 0.329 µM. In addition, the TGI in the test with SNB-19 CNS came to 0.0316 µM; in the test with SW-620 colon it was 0.158 µM; with TK-10 renal it was 0.173 µM.

In the case of `CC1(C)CN=C(NN=C(/C=C/c2ccc(C(F)(F)F)cc2)/C=C/c2ccc(C(F)(F)F)cc2)NC1`, the GI50 is 1.36 µM in the test on A549 NSCLC; 1.74 µM in the test on BT-549 breast; 1.09 µM in the test on CAKI-1 renal; 2.03 µM in the test with HL-60(TB) leukemia; 1.47 µM in the test with NCI-H460 lung; 1.64 µM in the test on SK-MEL-28 melanoma. For the same molecule, the GI50 in the test on SNB-19 CNS was 1.5 µM; in the test with SW-620 colon, 1.14 µM; in the test with TK-10 renal, 1.91 µM. Moreover, the TGI worked out at 2.91 µM in the test on A549 NSCLC; 3.46 µM in the test with BT-549 breast; 2.37 µM with CAKI-1 renal; 4.35 µM in the test on HL-60(TB) leukemia; 3.2 µM with NCI-H460 lung; 3.25 µM with SK-MEL-28 melanoma. Moreover, the figures for the TGI with SNB-19 CNS, with SW-620 colon and in the test on TK-10 renal were 3.18 µM, 2.66 µM and 3.37 µM, respectively.

Turning to `CCCC(=O)C1=C(O)C(Cc2c(O)c(C)c(O)c(C(=O)CCC)c2O)=C(O)C(C)(C)C1=O`, the TGI was > 50 µM in the test with A549 NSCLC; > 50 µM with BT-549 breast; > 50 µM in the test on CAKI-1 renal; 48 µM with K-562 leukemia; 43.1 µM with NCI-H460 lung; > 50 µM with SK-MEL-28 melanoma. Further, the TGI in the test on SNB-19 CNS, in the test with SW-620 colon and with TK-10 renal was > 50 µM each time.

In the case of `COC(=O)c1cc2c(o1)-c1nccc3c1c(nc1ccccc13)C2=O`, the GI50 was 4.66 µM in the test on A549 NSCLC; 4.05 µM in the test on BT-549 breast; 9.48 µM with CAKI-1 renal; 2 µM in the test on HL-60(TB) leukemia; 12.2 µM with NCI-H460 lung; 11.5 µM in the test with SK-MEL-28 melanoma. In addition, the results for the GI50 in the test with SNB-19 CNS, with SW-620 colon and in the test with TK-10 renal were 2.28 µM, 3.78 µM and 22.9 µM, respectively. The TGI with A549 NSCLC came to 21.1 µM; with BT-549 breast, 18.2 µM; in the test with CAKI-1 renal, 32.3 µM; in the test on HL-60(TB) leukemia, 4.76 µM; in the test with NCI-H460 lung it was 35 µM; in the test on SK-MEL-28 melanoma, 25.4 µM. Moreover, the TGI was 6.94 µM with SNB-19 CNS, 17.5 µM with SW-620 colon and 52.2 µM with TK-10 renal.

With `CCC(C)(O)c1cnc(CC(C)C)c(=O)n1O` (stereo unspecified), the TGI was > 100 µM with A549 NSCLC; > 100 µM with BT-549 breast; > 100 µM in the test with CAKI-1 renal; 47.8 µM in the test with K-562 leukemia; 81.8 µM in the test with NCI-H460 lung; > 100 µM in the test on SK-MEL-28 melanoma. Further, the TGI in the test on SNB-19 CNS, in the test on SW-620 colon and in the test on TK-10 renal was > 100 µM in each case.

Regarding `O=C(Nc1cc(Nc2ncccc2-c2ncnc3nc[nH]c23)ccc1F)c1cc(C(F)(F)F)cc(C(F)(F)F)c1`, the GI50 in the test with A549 NSCLC was 3.05 µM; with BT-549 breast it was 2.87 µM; in the test with HL-60(TB) leukemia, 0.439 µM; in the test with K-562 leukemia, 0.4 µM; in the test on NCI-H460 lung, 1.98 µM; in the test on SK-MEL-28 melanoma, 0.34 µM. The GI50 was 3.78 µM with SNB-19 CNS, 1.54 µM in the test on SW-620 colon and 3.75 µM in the test on TK-10 renal. The TGI with A549 NSCLC was > 10 µM; in the test on BT-549 breast, 6.54 µM; in the test with HL-60(TB) leukemia it was 8.44 µM; in the test with K-562 leukemia, > 10 µM; with NCI-H460 lung, 5.31 µM; with SK-MEL-28 melanoma, 1.68 µM. Also, the TGI with SNB-19 CNS, with SW-620 colon and in the test with TK-10 renal was > 10 µM throughout.
